Source: ChEMBL document CHEMBL2176918, “Design and optimization of pyrazinecarboxamide-based inhibitors of diacylglycerol acyltransferase 1 (DGAT1) leading to a clinical candidate dimethylpyrazinecarboxamide phenylcyclohexylacetic acid (AZD7687)” (J Med Chem, 2012)
In brackets after ≈: the same amount, converted by molar mass.

Assays:
[1] = Lipophilicity, log D of the compound at pH 7.4 by chromatographic method; settings: buffer
[2] = Fraction unbound in human plasma at 37 degC by LC-UV/MS method based equilibrium dialysis method
[3] = Half life in Han-Wistar rat at 2.54 to 5.4 uM/kg, po; format: ADME, organism-based; settings: in vivo
[4] = target: T1, Sterol O-acyltransferase 1 (Homo sapiens, UniProt P35610)
T1 sequence (P35610 whole entry): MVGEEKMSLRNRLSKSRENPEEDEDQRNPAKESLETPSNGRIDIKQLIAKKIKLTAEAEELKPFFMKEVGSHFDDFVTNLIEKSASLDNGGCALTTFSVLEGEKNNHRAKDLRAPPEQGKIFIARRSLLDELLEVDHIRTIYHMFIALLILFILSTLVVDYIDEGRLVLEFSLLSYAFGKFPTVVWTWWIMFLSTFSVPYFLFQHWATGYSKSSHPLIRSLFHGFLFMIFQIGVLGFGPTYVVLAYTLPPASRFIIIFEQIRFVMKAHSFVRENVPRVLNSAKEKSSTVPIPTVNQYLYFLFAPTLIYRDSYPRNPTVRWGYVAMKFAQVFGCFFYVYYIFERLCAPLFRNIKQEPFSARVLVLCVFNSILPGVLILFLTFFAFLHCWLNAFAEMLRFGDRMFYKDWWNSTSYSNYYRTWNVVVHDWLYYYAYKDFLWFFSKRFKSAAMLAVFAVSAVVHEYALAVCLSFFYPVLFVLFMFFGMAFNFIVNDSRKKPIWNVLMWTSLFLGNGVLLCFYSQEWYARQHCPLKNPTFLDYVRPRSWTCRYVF
Description: Inhibition of human ACAT1 by liquid scintillography

[5] = Apparent permeability from apical to basolateral side in MDCK cells at pH 7.4; settings: dog
[6] = Intrinsic clearance in rat hepatocytes assessed as parent compound disappearance at 1 uM per 10^6 cells; format: ADME, cell-based, Hepatocyte; settings: read-out: CLH
[7] = target: T2, Diacylglycerol O-acyltransferase 1 (Homo sapiens, UniProt O75907)
T2 sequence (O75907 whole entry): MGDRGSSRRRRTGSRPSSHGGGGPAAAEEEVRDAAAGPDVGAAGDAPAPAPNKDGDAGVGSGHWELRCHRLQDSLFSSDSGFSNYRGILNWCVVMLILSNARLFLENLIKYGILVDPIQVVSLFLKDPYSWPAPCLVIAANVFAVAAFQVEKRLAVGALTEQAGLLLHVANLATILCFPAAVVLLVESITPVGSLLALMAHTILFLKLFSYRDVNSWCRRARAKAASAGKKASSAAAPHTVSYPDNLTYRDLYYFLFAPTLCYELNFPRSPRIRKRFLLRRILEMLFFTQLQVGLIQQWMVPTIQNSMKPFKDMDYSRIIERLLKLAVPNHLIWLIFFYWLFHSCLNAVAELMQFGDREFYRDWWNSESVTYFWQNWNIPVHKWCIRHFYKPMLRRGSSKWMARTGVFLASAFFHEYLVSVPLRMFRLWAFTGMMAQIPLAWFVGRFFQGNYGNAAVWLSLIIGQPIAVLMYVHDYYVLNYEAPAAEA
Description: (§1) Inhibition of human recombinant DGAT1 expressed in Sf9 cells by liquid scintillography

[8] = Solubility in 0.1 M phosphate buffer at pH 7.4 at 25 degC incubated for 24 hrs
[9] = Stability in pH 7.8 buffer assessed as compound degradation incubated for 45 mins; format: physicochemical; settings: pH 7.8, 0.75 h
[10] = Stability in pH 7.8 buffer assessed as acyl migration incubated for 45 mins; format: physicochemical; settings: pH 7.8, 0.75 h
[11] = target: T2, Diacylglycerol O-acyltransferase 1; settings: sf9
Description: as §1

| SMILES | chromatographic logD [1] | IC50 [11] | other results |
| --- | --- | --- | --- |
| Cc1nc(C)c(-c2ccc3c(c2)CC[C@]32CC[C@@H](Cc3nnn[nH]3)CC2)nc1C(N)=O | 2 |  |  |
| Cc1nc(C)c(-c2ccc3c(c2)CC[C@]32CC[C@@H](c3nnn[nH]3)CC2)nc1C(N)=O | 1.4 |  |  |
| Cc1nc(C)c(-c2ccc(C34CCC(C(=O)O)(CC3)CC4)cc2)nc1C(N)=O | 1.6 |  | fraction unbound [2]: 0.006; half-life [3]: 438 min; IC50 [4]: 15 µM; Papp A→B [5]: 13 ×10⁻⁶ cm/s; hepatocyte CLint at 1 µM [6]: < 2 µL/min/1e6 cells; IC50 [7]: 0.08 µM; solubility at 24 h [8]: 113 µM (≈ 42.9 µg/mL) |
| Cc1nc(C)c(-c2ccc(C34CCC(CC(=O)O)(CC3)CC4)cc2)nc1C(N)=O | 1.3 |  |  |
| Cc1nc(C)c(-c2ccc([C@H]3CC[C@H](CC(=O)O[C@@H]4O[C@H](C(=O)O)[C@@H](O)[C@H](O)[C@H]4O)CC3)cc2)nc1C(N)=O |  |  | Stability [9]: Stable; Stability [10]: Stable |
| CNC(=O)c1cnc(C)c(-c2ccc([C@H]3CC[C@H](CC(=O)O)CC3)cc2)n1 | 0.9 | Not Active |  |
| Cc1ncc(C(=O)N(C)C)nc1-c1ccc([C@H]2CC[C@H](CC(=O)O)CC2)cc1 | 0.7 | Not Active |  |
| Cc1ncc(C(=O)NCc2ccccc2)nc1-c1ccc([C@H]2CC[C@H](CC(=O)O)CC2)cc1 | 2.7 | Not Active |  |
| Cc1ncc(C(=O)N2CCOCC2)nc1-c1ccc([C@H]2CC[C@H](CC(=O)O)CC2)cc1 | 0.7 | Not Active |  |
| Cc1ncc(C(=O)O)nc1-c1ccc([C@H]2CC[C@H](CC(=O)O)CC2)cc1 | < 0 | Not Active |  |
| Cc1nc(C)c(-c2ccc([C@H]3CC[C@H](CC(=O)O)CC3)cc2)nc1C(=O)O |  | Not Active |  |
| NCc1cncc(-c2ccc([C@H]3CC[C@H](CC(=O)O)CC3)cc2)n1 | < 0 | Not Active |  |
| N=C(N)c1cncc(-c2ccc([C@H]3CC[C@H](CC(=O)O)CC3)cc2)n1 | < 0 |  | IC50 [7]: > 33 µM |
| N#C/N=C(\N)c1cncc(-c2ccc([C@H]3CC[C@H](CC(=O)O)CC3)cc2)n1 | 1.2 | Not Active |  |
| Cc1ncc(C(N)=S)nc1-c1ccc([C@H]2CC[C@H](CC(=O)O)CC2)cc1 | 1.8 |  |  |
| NC(=O)c1cncc(-c2ccc([C@H]3CC[C@H](CC(=O)O)CC3)cc2)c1 | 0 |  |  |
| NC(=O)c1cccc(-c2ccc([C@H]3CC[C@H](CC(=O)O)CC3)cc2)n1 | 0.8 |  |  |
| Cc1ccc(C(N)=O)nc1-c1ccc([C@H]2CC[C@H](CC(=O)O)CC2)cc1 | 1.3 |  |  |
| Cc1nc(C(F)F)c(C(N)=O)nc1-c1ccc([C@H]2CC[C@H](CC(=O)O)CC2)cc1 | 1.4 |  |  |
| CCc1nc(C)c(-c2ccc([C@H]3CC[C@H](CC(=O)O)CC3)cc2)nc1C(N)=O | 1.5 |  |  |
| Cc1nc(C(C)C)c(C(N)=O)nc1-c1ccc([C@H]2CC[C@H](CC(=O)O)CC2)cc1 | 2.6 |  | IC50 [7]: > 10 µM |
| Cc1nc(-c2ccccc2)c(C(N)=O)nc1-c1ccc([C@H]2CC[C@H](CC(=O)O)CC2)cc1 | 2 |  | IC50 [7]: > 10 µM |
